Data: patent US8524716B2, “Macrocyclic indoles as hepatitis C virus inhibitors” (priority 2007, dated 2013)
pIC50: −log10 of the molar value. Like-named read-outs stand apart in the source and are kept apart here.

What was measured:
[1] = test system: HCV replicons (NS3-NS5B regions of HCV type 1b) in Huh-Luc cells; assay: HCV replicon assay in Huh-7 luc/neo (Huh-Luc) cells, luciferase readout; type: cell-based; details: three days incubation, luciferase activity
Text: The compounds of formula (I) were examined for activity in the inhibition of HCV RNA replication in a cellular assay. […] The cellular assay was based on a bicistronic expression construct, as described by Lohmann et al. (1999) Science vol. 285 pp. 110-113 with modifications described by Krieger et al. (2001) Journal of Virology 75: 4614-4624, in a multi-target screening strategy. In essence, the method was as follows.
The assay utilized the stably transfected cell line Huh-7 luc/neo (hereafter referred to as Huh-Luc). This cell line harbors an RNA encoding a bicistronic expression construct comprising the wild type NS3-NS5B regions of HCV type 1b translated from an Internal Ribosome Entry Site (IRES) from encephalomyocarditis virus (EMCV), preceded by a reporter portion (firefly luciferase), and a selectable marker portion (neo^R, neomycine phosphotransferase). The construct is bordered by 5′ and 3′ NTRs (non-translated regions) from HCV type 1b. Continued culture of the replicon cells in the presence of G418 (neo^R) is dependent on the replication of the HCV RNA. The stably transfected replicon cells that express HCV RNA, which replicates autonomously and to high levels, encoding inter alia luciferase, were used for screening the antiviral compounds.
The replicon cells were plated in 384 well plates in the presence of the test and control compounds which were added in various concentrations. Following an incubation of three days, HCV replication was measured by assaying luciferase activity (using standard luciferase assay substrates and reagents and a Perkin Elmer ViewLux™ ultraHTS microplate imager). […] The inhibitory activity of the compound on luciferase activity was monitored on the Huh-Luc cells, enabling a dose-response curve for each test compound. EC50 values were then calculated, which value represents the amount of the compound required to decrease the level of detected luciferase activity by 50%, or more specifically, the ability of the genetically linked HCV replicon RNA to replicate.

HCV NS5B = HCV NS5B (Hepatitis C virus genotype 1b (strain HC-J4), UniProt O92972); assay: biochemical; type: biochemical; details: for IC50: 100 nM enzyme, [3H]GTP incorporation, 2 h at 25° C., read-out: IC50 (μM) Enzymatic assay
Chain of HCV NS5B (O92972 2420-3010 limits assumed): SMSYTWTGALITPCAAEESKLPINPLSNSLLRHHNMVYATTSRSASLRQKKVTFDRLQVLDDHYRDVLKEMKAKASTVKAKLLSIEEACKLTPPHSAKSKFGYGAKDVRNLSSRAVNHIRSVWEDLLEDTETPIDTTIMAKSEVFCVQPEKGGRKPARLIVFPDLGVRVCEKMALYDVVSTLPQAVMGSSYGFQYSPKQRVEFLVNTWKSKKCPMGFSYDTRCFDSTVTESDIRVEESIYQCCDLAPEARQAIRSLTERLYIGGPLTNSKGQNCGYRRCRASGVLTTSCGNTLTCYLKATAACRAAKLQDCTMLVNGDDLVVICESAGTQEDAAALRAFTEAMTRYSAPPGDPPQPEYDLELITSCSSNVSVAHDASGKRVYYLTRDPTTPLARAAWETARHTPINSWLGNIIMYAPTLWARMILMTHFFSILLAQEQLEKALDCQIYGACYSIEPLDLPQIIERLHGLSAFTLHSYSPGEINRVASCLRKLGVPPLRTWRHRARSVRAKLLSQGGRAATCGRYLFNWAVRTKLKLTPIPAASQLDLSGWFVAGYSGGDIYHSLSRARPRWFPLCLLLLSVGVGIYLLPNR
Protocol: The cDNA encoding NS5B amino acid 1-570 (HC-J4, genotype 1b, pCV-J4L6S, genebank accession number AF054247) was subcloned into the Nhe I and Xho I restriction sites of pET-21b. Expression of the subsequent His-tagged C-terminal 21 amino acid deleted NS5B was performed as follows:
The NS5B expression construct was transformed into E. coli BL21(DE3) (Novagen, Madison, Wis.). Five milliliters of LB-medium supplemented with ampicillin (50 μg/mL) was inoculated with one colony. When the pre-culture reached an optical density of 0.6 measured at 600 nm, it was transferred to fresh LB-medium supplemented with ampicillin, at a ratio of 1:200. Cells were grown to an optical density at 600 nm of 0.6, after which the expression cultures were shifted to a growth temperature of 20° C. following induction with isopropyl-1-thio-β-D-galactopyranoside and MgCl2 at a final concentration of 0.4 mM and 10 μM, respectively. After ten hours of induction, cells were harvested by centrifugation and resuspended in 20 mM Tris-HCl, pH 7.5, 300 mM NaCl, 10% glycerol, 0.1% NP40, 4 mM MgCl2, 5 mM DTT supplemented with EDTA-free Complete Protease Inhibitor (Roche, Basel, Switzerland). Cell suspensions were disrupted by sonication and incubated with 10-15 mg/L of DNase I (Roche, Basel, Switzerland) for 30 minutes. Cell debris was removed through ultracentrifugation at 30,000×g for 1 hour and clarified cell lysate was flash frozen and stored at −80° C. prior to purification.
Clarified cell lysate was thawed and subsequently loaded onto a 5 mL pre-packed HisTrap FF column equilibrated with 25 mM HEPES, pH 7.5, 500 mM NaCl, 10% glycerol and 5 mM DTT. Proteins were eluted with 500 mM imidazole at a flow rate of 1 mL/min. Fractions containing the protein of interest were applied onto a pre-packed 26/10 HiPrep Desalting Column equilibrated with 25 mM HEPES, pH 7.5, 150 mM NaCl, 10% glycerol and 5 mM DTT. The buffer-exchanged NS5B peak was then applied onto a 20 mL Poly-U Sepharose column. Protein was eluted with an increasing salt gradient and fractions collected. Protein purity was assessed on Nu-PAGE pre-cast gels (Invitrogen, Carlsbad, Calif.). Purified NS5B samples were concentrated using Centri-Prep concentrators (Millipore, Billerica, Mass., USA) and protein concentrations were determined by Bradford assay (Pierce, Rockford, Ill., USA).
Measurement of HCV NS5B polymerization activity was performed by evaluating the amount of radio labeled GTP incorporated by the enzyme in a newly synthesized RNA using heteropolymeric RNA template/primer. The high-throughput RNA dependent RNA polymerase (RdRp) assay was carried out in 384-well plates using 100 nM enzyme, 300 nM 5′-biotinylated oligo(rG13)/poly(rC) primer-template, 600 nM of GTP, and 0.1 μCi of [^3H]GTP in 25 mM Tris-HCl, pH 7.5, 5 mM MgCl2, 25 mM KCl, 17 mM NaCl and 3 mM of dithiothreitol (DTT). Test compounds were dissolved in DMSO. The test compounds were added to the preformed polymerase-template complex, and incubated at room temperature for 15 min before the addition of nucleoside triphosphates (NTP). The 30 μl reaction was terminated after 2 h at 25° C. upon addition of 30 μl A PVT-SPA beads (Amersham Biosciences RPNQ0009, 5 mg/ml in 0.5 M EDTA).

Row | Structure (SMILES) | EC50 ([1]; Hepatitis C virus, Huh-7, 72 h) [µM] | IC50 (HCV NS5B) [µM] | further results
1 | CN1CCCCN(C)S(=O)(=O)NC(=O)c2ccc3c(C4CCCCC4)c(-c4ccc(Cl)cc4)n(c3c2)CC1=O [Cpd 24, 18-(4-Chloro-phenyl)-17-cyclohexyl-4,9-dimethyl-10,10-dioxo-10λ^6-thia-1,4,9,11-tetraaza-tricyclo[11.5.2.016,19]icosa-13(20),14,16(19),17-tetraene-3,12-dione] | 0.53 |  | ring closure, isolated yield (amide bond, 15-membered ring): 12%
2 | O=C1Cn2c(-c3ccc(OCc4cc(N5CCCC5=O)ccc4N4CCOCC4)cc3)c(C3CCCCC3)c3ccc(cc32)C(=O)NCCC=CCCN1 |  |  | ring closure, isolated yield (from C=CCCNC(=O)Cn1c(-c2ccc(OCc3cc(N4CCCC4=O)ccc3N3CCOCC3)cc2)c(C2CCCCC2)c2ccc(C(=O)NCCC=C)cc21, rcm bond, 15-membered ring, Hoveyda-Grubbs 1st gen (2 portions), DCE, 80.0 °C): 25%
3 | CS(=O)(=O)N1CCN(c2ccc(N)cc2COc2ccc(-c3c(C4CCCCC4)c4ccc5cc4n3CC(=O)NCC/C=C\CCNC5=O)cc2)CC1 [Cpd 4, 17-cyclohexyl-18-[4-[2-(4-methanesulfonylpiperazin-1-yl)-5-amino-benzyloxy]phenyl]-1,4,11-triazatricyclo[11.5.2.0^16,19]icosa-7,13(20),14,16(19),17-pentaene-3,12-dione] | 0.24 | 0.27 | 
4 | CS(=O)(=O)N1CCN(c2ccc([N+](=O)[O-])cc2COc2ccc(-c3c(C4CCCCC4)c4ccc5cc4n3CC(=O)NCCC=CCCNC5=O)cc2)CC1 |  |  | ring closure, isolated yield (rcm bond, 15-membered ring, Hoveyda-Grubbs 1st gen (2 portions), DCE, 80.0 °C): 70%
5 | COc1ccc(-c2c(C3CCCCC3)c3ccc4cc3n2CC(=O)NCCCCCN(C)S(=O)(=O)NC4=O)cc1 [Cpd 26, 18-Cyclohexyl-19-(4-methoxy-phenyl)-10-methyl-11,11-dioxo-11λ^6-thia-1,4,10,12-tetraaza-tricyclo[12.5.2.017,20]henicosa-14(21),15,17(20),18-tetraene-3,13-dione] | 0.35 |  | ring closure, isolated yield (amide bond, 16-membered ring, CDI, CH3CN, 2 steps): 31%
6 | CS(=O)(=O)N1CCN(c2ccc(N3CCCC3=O)cc2COc2ccc(-c3c(C4CCCCC4)c4ccc5cc4n3CC(=O)NCCC=CCS(=O)(=O)NC5=O)cc2)CC1 [Cpd 14, 17-Cyclohexyl-18-[4-[2-(4-methanesulfonyl-piperazin-1-yl)-5-(2-oxo-pyrrolidin-1-yl)-benzyloxy]-phenyl]-10,10-dioxo-10λ^6-thia-1,4,11-triaza-tricyclo-[11.5.2.0^16,19]icosa-7,13(20),14,16(19),17-pentaene-3,12-dione] | 2.04 |  | pIC50 (HCV NS5B): 6.06
7 | COc1ccc(-c2c(C3CCCCC3)c3ccc4cc3n2CC(=O)NCCCCN(C)S(=O)(=O)NC4=O)cc1 [Cpd 25, 17-Cyclohexyl-18-(4-methoxy-phenyl)-9-methyl-10,10-dioxo-10λ^6-thia-1,4,9,11-tetraaza-tricyclo[11.5.2.016,19]icosa-13(20),14,16(19),17-tetraene-3,12-dione] | 1.76 | 0.18 | 
8 | O=C1Cn2c(-c3ccc(OCc4cc(N5CCCC5=O)ccc4N4CCOCC4)cc3)c(C3CCCCC3)c3ccc(cc32)C(=O)NS(=O)(=O)CC=CCCN1 [Cpd 13, 17-Cyclohexyl-18-[4-[2-morpholin-4-yl-5-(2-oxo-pyrrolidin-1-yl)-benzyloxy]-phenyl]-10,10-dioxo-10λ^6-thia-1,4,11-triaza-tricyclo[11.5.2.0^16,19]icosa-7,13(20),14,16(19),17-pentaene-3,12-dione] | 2.36 |  | pIC50 (HCV NS5B): 7.40
9 | O=C1Cn2c(-c3ccc(O)cc3)c(C3CCCCC3)c3ccc(cc32)C(=O)NCCCCCCN1 [Cpd 8] |  | 2.79 | EC50 [1]: > 32 µM
10 | COc1ccc(Br)c(COc2ccc(-c3c(C4CCCCC4)c4ccc5cc4n3CC(=O)NCCCCCCNC5=O)cc2)c1 [Cpd 9, 18-[4-(2-bromo-5-methoxybenzyloxy)phenyl]-17-cyclohexyl-1,4,11-triaza-tricyclo[11.5.2.0^16,19]icosa-13(20),14,16(19),17-tetraene-3,12-dione] | 4.8 | 13 | 
11 | CS(=O)(=O)N1CCN(c2ccc([N+](=O)[O-])cc2COc2ccc(-c3c(C4CCCCC4)c4ccc5cc4n3CC(=O)NCC/C=C\CCNC5=O)cc2)CC1 [Cpd 3, 17-cyclohexyl-18-[4-[2-(4-methanesulfonylpiperazin-1-yl)-5-nitrobenzyloxy]phenyl]-1,4,11-triazatricyclo[11.5.2.0^16,19]icosa-7,13(20),14,16(19),17-pentaene-3,12-dione] | 0.72 | 1.1 | 
12 | COc1ccc(-c2ccc(Cl)cc2)c(-c2ccc3cc(-c4c(C5CCCCC5)c5ccc6cc5n4CC(=O)NCC/C=C\CCNC6=O)ccc3n2)c1 [Cpd 16, 18-[2-(4′-Chloro-4-methoxy-biphenyl-2-yl)-quinolin-6-yl]-17-cyclohexyl-1,4,11-triaza-tricyclo[11.5.2.0^16,19]icosa-7,13(20),14,16(19),17-pentaene-3,12-dione] | 17.6 | 1.44 | 
13 | O=C1Cn2c(-c3ccc(OCc4cc(N5CCCC5=O)ccc4N4CCOCC4)cc3)c(C3CCCCC3)c3ccc(cc32)C(=O)NCC/C=C\CCN1 [Cpd 11, 17-Cyclohexyl-18-[4-[2-morpholin-4-yl-5-(2-oxo-pyrrolidin-1-yl)-benzyloxy]-phenyl]-1,4,11-triaza-tricyclo[11.5.2.0^16,19]icosa-7,13(20),14,16(19),17-pentaene-3,12-dione] | 0.69 | 0.45 | 
14 | CC(=O)Nc1ccc(N2CCN(S(C)(=O)=O)CC2)c(COc2ccc(-c3c(C4CCCCC4)c4ccc5cc4n3CC(=O)NCC/C=C\CCNC5=O)cc2)c1 [Cpd 5, 17-cyclohexyl-18-[4-[2-(4-methanesulfonylpiperazin-1-yl)-5-acetylamino-benzyloxy]phenyl]-1,4,11-triazatricyclo[11.5.2.0^16,19]icosa-7,13(20),14,16(19),17-pentaene-3,12-dione] | 0.58 | 0.29 | 
15 | CS(=O)(=O)N1CCN(c2ccc(N3CCCC3=O)cc2COc2ccc(-c3c(C4CCCCC4)c4ccc5cc4n3CC(=O)NCC/C=C\CCNC5=O)cc2)CC1 [Cpd 12, 17-Cyclohexyl-18-[4-[2-(4-methanesulfonyl-piperazin-1-yl)-5-(2-oxo-pyrrolidin-1-yl)-benzyloxy]-phenyl]-1,4,11-triaza-tricyclo[11.5.2.0^16,19]icosa-7,13(20),14,16(19),17-pentaene-3,12-dione] | 0.27 | 0.36 | 
